Test results from article PMC8426237, “A first-in-human phase I study of TAS0728, an oral covalent binding inhibitor of HER2, in patients with advanced solid tumors with HER2 or HER3 aberrations” (Investigational New Drugs, 2021).

Assays:
[1] = Plasma pharmacokinetics after single and multiple oral doses; assay type: in vivo, human
Experimental: Multiple blood samples were collected on day 1 of cycles 1 and 2 (i.e., pre-dose, post-dose at +0.5 h, +1 h, +1.5 h, +2 h, +3 h, +4 h, +6 h, +8 h, +12 h) for analysis of plasma PK after administration of single and multiple doses respectively; urine samples were collected 0–3 h prior to morning dose and 0–12 h post-morning dose on day 1 of cycle 1.
Continuous data were summarized with frequency, median, range, mean, standard deviation and standard error if relevant. Categorical data were presented as frequencies and percentages. 95% confidence intervals (CI) were calculated following the exact method. A p value <0.05 was considered statistically significant. Data were analyzed using the SAS® system software version 9.3 for Windows® (Statistical Analysis System, Cary, NC, USA). The PK data were analyzed using Phoenix WinNonlin (Version 6.4 or later, Certara L.P; Princeton New Jersey, United States). All analyses were descriptive and exploratory; no formal statistical testing was conducted.

[2] = test system: HER2; design: method as in PMID 30787176; details: cited from earlier work
[3] = test system: xenograft models of tumors with acquired resistance to trastuzumab/pertuzumab or to T-DM1; design: method as in PMID 32248641; details: cited from earlier work
[4] = design: method as in PMID 30787176; details: efficacious doses in mouse models; cited from earlier work
[5] = Dose-limiting toxicities, 3 + 3 dose escalation, first cycle; assay type: in vivo, human; details: for Any DLTs / DLT: Grade ≥ 3 diarrhea only if lasting >48 h and unresponsive to intensive antidiarrheal medication: DLT-evaluable population; for Patients with DLT AEs: all treated population
Experimental: Based on preclinical toxicological studies and PK analysis, the starting dose of TAS0728 was 50 mg BID. Dose escalation followed a 3 + 3 dose-escalation scheme and planned to proceed using the following dose levels BID: 50 mg, 100 mg, 200 mg, 400 mg, 600 mg and 800 mg. TAS0728 was administered during a 21-day cycle.
If a DLT was identified at a particular dose level, de-escalation was made to an intermediate de-escalation dose level. […] The MTD was to be the dose level at which 0 of 6 or 1 of 6 patients experienced a DLT, with at least 2 patients experiencing DLTs at the next higher dose level. For the determination of the MTD, DLTs that occurred during the first cycle (i.e., first 21 days) of TAS0728 treatment were considered. Patients who experienced AEs were allowed two dose reductions during the study. TAS0728 treatment could be continued until disease progression, unacceptable toxicity, withdrawal of consent, or at the discretion of the investigator.

[6] = test system: advanced solid tumors with HER2 or HER3 aberrations; experiment: Antitumor activity, objective tumor assessment by RECIST1.1; assay type: in vivo, human
Text: Objective tumor assessments were made according to the revised response evaluation criteria in solid tumors [RECIST1.1] [8] from evaluation of magnetic resonance imaging (MRI)/computed tomography (CT) scans made at screening (baseline) and after every 2 cycles during the first 6 months of treatment with TAS0728, and after every 3 cycles of treatment thereafter.

[7] = human, in vivo
Experimental: A DLT was defined as a study treatment-related adverse event (TRAE), according to the Common Terminology Criteria for Adverse Events (CTCAE, Version 5.0), with qualifying criteria for certain DLTs (e.g., Grade ≥ 3 diarrhea, was included as a DLT only if lasting >48 h and unresponsive to intensive antidiarrheal medication).
Patients were closely monitored for these potential toxicities during the current study. Safety assessments included recording of AEs and serious AEs (SAEs) from the time of signing the study informed consent form to 30 days after the last dose of study medication. Safety parameters including laboratory evaluations (hematology, coagulation, chemistry, and urinalysis), vital sign measurements and body weight, electrocardiogram (ECG) recordings, ECOG performance status, echocardiogram or multi-gated acquisition (MUGA), and physical examination were assessed at screening, during the study and at 30 days following the last dose. The use of concomitant medications was permitted and details for such medications were recorded.

[8] = test system: HER2 overexpressed cancer cells; design: method as in PMID 30787176; details: cited from earlier work
[9] = planned dose 50 mg, cycle 1, day 1, mean, n 3
[10] = planned dose 50 mg, cycle 1, day 1, n 3
[11] = planned dose 100 mg, cycle 1, day 1, mean, n 3
[12] = planned dose 100 mg, cycle 1, day 1, n 3
[13] = planned dose 100 mg, cycle 2, day 1, mean, n 2
[14] = planned dose 100 mg, cycle 2, day 1, mean, n 3
[15] = planned dose 100 mg, cycle 2, day 1, n 3
[16] = planned dose 150 mg, cycle 1, day 1, mean, n 5
[17] = planned dose 150 mg, cycle 1, day 1, mean, n 6
[18] = planned dose 150 mg, cycle 1, day 1, n 6
[19] = planned dose 150 mg, cycle 2, day 1, mean, n 2
[20] = planned dose 150 mg, cycle 2, day 1, n 2
[21] = planned dose 200 mg, cycle 1, day 1, mean, n 6
[22] = planned dose 200 mg, cycle 1, day 1, mean, n 7
[23] = planned dose 200 mg, cycle 1, day 1, n 7
[24] = planned dose 200 mg, cycle 2, day 1, mean, n 2
[25] = planned dose 200 mg, cycle 2, day 1, n 2

## C=CC(=O)N1CCC[C@@H](n2nc(C(=O)Nc3ccc(CC(=O)N(C)C)c(C)c3C)c3c(N)ncnc32)C1 [TAS0728]
[1]; BID multiple-dose administration
  Accumulation of TAS0728 exposure: No significant accumulation
[1]; cycle 1, day 1, all dose levels
  t1/2: approximately 2.0 h
[1]; [9]
  AUC0–12: 2437 ng·h/mL
  AUCinf: 2470 ng·h/mL
  AUClast: 2415 ng·h/mL
  Cmax: 1162 ng/mL
  t1/2: 1.96 h
[1]; [10]
  Tmax maximum: 1.58 h
  Tmax median: 0.50 h
  Tmax minimum: 0.50 h
[1]; [11]
  AUC0–12: 5669 ng·h/mL
  AUCinf: 5765 ng·h/mL
  AUClast: 5626 ng·h/mL
  Cmax: 2039 ng/mL
  t1/2: 1.90 h
[1]; [12]
  Tmax maximum: 3.05 h
  Tmax median: 0.58 h
  Tmax minimum: 0.53 h
[1]; [13]
  AUC0–12: 5475 ng·h/mL
  R(AUC0–12), observed accumulation ratio of AUC0–12: 0.87
  t1/2: 2.17 h
[1]; [14]
  AUClast: 4276 ng·h/mL
  Cmax: 1389 ng/mL
  R (Cmax), observed accumulation ratio of Cmax: 0.56
[1]; [15]
  Tmax maximum: 6.20 h
  Tmax median: 3.03 h
  Tmax minimum: 0.92 h
[1]; [16]
  AUC0–12: 12,946 hr*ng/mL
  AUCinf: 13,158 hr*ng/mL
  t1/2: 1.91 h
[1]; [17]
  AUClast: 19,523 hr*ng/mL
  Cmax: 5402 ng/mL
[1]; [18]
  Tmax maximum: 1.05 h
  Tmax median: 0.59 h
  Tmax minimum: 0.50 h
[1]; [19]
  AUC0–12: 14,782 hr*ng/mL
  AUClast: 14,782 hr*ng/mL
  Cmax: 3460 ng/mL
  R (Cmax), observed accumulation ratio of Cmax: 0.91
  R(AUC0–12), observed accumulation ratio of AUC0–12: 1.61
  t1/2: 3.11 h
[1]; [20]
  Tmax maximum: 1.58 h
  Tmax median: 1.30 h
  Tmax minimum: 1.02 h
[1]; [21]
  AUC0–12: 14,653 hr*ng/mL
  AUCinf: 15,046 hr*ng/mL
  t1/2: 2.05 h
[1]; [22]
  AUClast: 15,108 hr*ng/mL
  Cmax: 5091 ng/mL
[1]; [23]
  Tmax maximum: 3.92 h
  Tmax median: 1.00 h
  Tmax minimum: 0.45 h
[1]; [24]
  AUC0–12: 11,459 hr*ng/mL
  AUClast: 11,248 hr*ng/mL
  Cmax: 2565 ng/mL
  R (Cmax), observed accumulation ratio of Cmax: 0.96
  R(AUC0–12), observed accumulation ratio of AUC0–12: 1.18
  t1/2: 3.13 h
[1]; [25]
  Tmax maximum: 3.25 h
  Tmax median: 1.88 h
  Tmax minimum: 0.52 h
[2]
  Specificity for HER2 over wild-type EGFR: high specificity for HER2 over wild-type EGFR
[2]; nonclinical studies
  Inhibitory effect against HER2 and HER3 versus EGFR: much greater against HER2 and HER3 than against EGFR
[3]
  Anti-tumor effect: significant anti-tumor effects
[4]
  Diarrhea during treatment: did not induce diarrhea
[5]; 50 mg BID (N = 3)
  Any DLTs: 0 n, (%)
  DLT: Grade ≥ 3 diarrhea only if lasting >48 h and unresponsive to intensive antidiarrheal medication: 0 n, (%)
  Patients with DLT AEs: 0 n, (%)
[5]; 100 mg BID (N = 3)
  Any DLTs: 0 n, (%)
  DLT: Grade ≥ 3 diarrhea only if lasting >48 h and unresponsive to intensive antidiarrheal medication: 0 n, (%)
  Patients with DLT AEs: 0 n, (%)
[5]; 150 mg BID (N = 3)
  Any DLTs: 1 (33.3) n, (%)
  DLT: Grade ≥ 3 diarrhea only if lasting >48 h and unresponsive to intensive antidiarrheal medication: 1 (33.3) n, (%)
[5]; 150 mg BID (N = 6)
  Patients with DLT AEs: 1 (16.7) n, (%)
[5]; 200 mg BID
  DLTs observed (Grade 3 diarrhea lasting >48 h, not responsive to antidiarrheal treatment): two
[5]; 200 mg BID (N = 6)
  Any DLTs: 2 (33.3) n, (%)
  DLT: Grade ≥ 3 diarrhea only if lasting >48 h and unresponsive to intensive antidiarrheal medication: 2 (33.3) n, (%)
[5]; 200 mg BID (N = 7)
  Patients with DLT AEs: 2 (28.6) n, (%)
[5]; Overall (N = 19)
  Patients with DLT AEs: 3 (15.8) n, (%)
[5]; Total (N = 15)
  Any DLTs: 3 (20.0) n, (%)
  DLT: Grade ≥ 3 diarrhea only if lasting >48 h and unresponsive to intensive antidiarrheal medication: 3 (20.0) n, (%)
[6]; 200 mg BID, no dose adjustment
  Time on treatment before disease progression, patient with PR (BTC, HER2 amplification): 136 days
[6]; all dose levels
  Patients with disease control (best overall tumor response of PR or SD): 10
[6]; of 19 treated patients, NSCLC with HER2 mutation at 50 mg BID, BTC with HER2 amplification at 200 mg BID
  Objective responses (PR): two
[7]
  Patients with urinary tract infection: 28.6%
[8]
  Inhibitory activity for overexpressed/amplified HER2 and mutated HER2 in cancer cells: potent inhibitory activity
[8]; in vitro and in vivo
  Antiproliferative activity against HER2 overexpressed cancer cells: antiproliferative activity
